The values that follow come from patent US11517617B2, “Methods and compositions for preventing influenza infection” (THE UNIVERSITY OF MELBOURNE, priority 2017, dated 2022).

Assay [1] deals with CD8^+ T cells. On the set-up: species or system A24 mice. The settings on record: mouse.
Assay [2] concerns CD8^+ T cells. On the set-up: species or system HHD-A2 mice. The settings on record: mouse, in vivo.
The subject of assay [3] is CD8^+ T cells. Kind of assay: In vitro screening and validation in HLA-A*02:01-expressing human PBMCs, CD8^+ T cell lines, IFNγ/TNF ICS. The class given is cell-based. The settings on record: for CD8^+ T cell response hierarchy of individual peptides: HLA-A*0201^+ donors, dissection of pools into individual peptides; for CD8^+ T cell response, median / donors with response: T cell lines towards individual peptides, n=6. The text has this: As a next step, the IBV-specific CD8^+ T cell responses towards the 67 LC/MS-identified IBV-peptides in HLA-A*02:01-expressing individuals were dissected. CD8^+ T cell lines specific for each of the 6 peptide pools were established, and then re-stimulated cells with the cognate pool in an IFNγ/TNF ICS assay (FIG. 2f).
To validate these responses independently of the peptide pools, CD8^+ T cell lines were established towards individual immunogenic peptides (FIG. 2i). […] Thus, these thorough in vivo and in vitro analyses identified 5 novel peptides recognized by CD8^+ T cells in complex with the HLA-A*02:01 molecule, with BHA543-551 being immunodominant amongst the peptides tested, in both mice and humans.
Peripheral blood mononuclear cells (PBMC) from healthy A2:01+ donors were cultured in the presence of antigens (10 μM peptide) for 10 days in the presence of IL-2 (10 U/ml). On day 10 PBMCs were stimulated with peptides (1 μM) for 5 hours in the presence of BFA. Cells were surface stained for CD3 and CD8 and intracellularly stained for IFNγ and TNF using the BD cytofix/cytoperm kit according to the manufacturer's instructions (BD Biosciences).
Any pools with positive ICS responses were then dissected to their individual peptides.

In the next assay the test system is CD8+ T cells. Set-up: species or system transgenic HLA-A24 mice. As to conditions: mouse, in vivo.
The next assay concerns CD8+ T Lymphocytes. In kind it is cell-based, human.
The test system of assay [4] is memory CD8^+ T cells within PBMCs. The class given is cell-based, human.
Assay [5] deals with CD8^+ T cells. The assay can be described thus: Recall responses in HHD-A2 mice primed with B/Malaysia and challenged with B/Phuket. In kind it is in vivo. As to conditions: spleen d8 after B/Phuket challenge; not statistically significant. The text has this: To further verify the immunogenicity of these epitopes in recall responses, HHD-A2 mice were primed i.n. with B/Malaysia, infected with the heterologous strain B/Phuket 6 weeks later and then assessed CD8^+ T cells against the main epitopes A2/BHA543-551 and A2/BNS1266-274 in the spleen on d8 after challenge.

A further assay concerns tetramer^+ CD8^+ T cells. Kind of assay: Tetramer staining of IAV- or IBV-specific CD8^+ T cell lines established in vitro from healthy adult PBMC. The class given is cell-based, human. The settings on record: IBV-specific T cell lines, n=11. From the text:
Conversely, the universal A2/PB1413 epitope within the IBV-specific T cell lines was immunodominant (0.3%; detected in 8/11 donors) over the IBV-specific A2/BHA543 (0.11%; detected in 10/11 donors) and A2/BNS1266 epitopes (0.01%) (FIG. 4c).

As for “RYGFVANF (Influenza A virus) [PB1498-505]”, in the assay with CD8^+ T cells [1], the “in vivo CD8^+ T cell responses” value is listed as “targeted”. For “SLNDDGLDNHTILL (Influenza B virus) [HA538-551]”, the “CD8+ T cell responses (IFNγ and TNF production)” value in the assay on CD8^+ T cells [2] is on record as “detected”. Further, the “CD8^+ T cell response hierarchy of individual peptides” value (“CD8^+ T cell response hierarchy” below) with CD8^+ T cells [3] is on record as “Subdominant responses”. As to “TYQWIIRNW (Influenza A virus) [PB2549-557]”, the “in vivo CD8^+ T cell responses” value in the assay on CD8^+ T cells [1] is given as “targeted”. Regarding LYSDILLKF (Influenza B virus) [NA32-40], the “immunogenicity (induction of IFNγ production in CD8+ T cells after peptide re-stimulation)” value (“immunogenicity” for short) with CD8+ T cells is “immunogenic”. On to “KYVLFHTSL (Influenza B virus) [PA457-465]”, for which, in the assay on CD8+ T Lymphocytes, the “CD8+ T cell responses (IFNγ) after single peptide re-stimulation” value (shortened to “CD8+ T cell responses (IFNγ)”) is on record as “immunogenic response”. For “SFSFGGFTF (Influenza A virus) [PB2322-330]”, the “in vivo CD8^+ T cell responses” value with CD8^+ T cells [1] is “targeted”.

Consider “TYHSYANNI (Influenza B virus) [NA213-221]”, for which the “immunogenicity” value with CD8+ T cells is reported as “immunogenic”.

As for “VLSQFGQEHRL (Influenza B virus) [NS1264-274]”, in the assay on CD8^+ T cells [2], the “CD8+ T cell responses (IFNγ and TNF production)” value was “detected”; the “CD8^+ T cell responses at the site of infection” value was “targeted”. In addition, in the assay with CD8^+ T cells [3], the “CD8^+ T cell response hierarchy” value is “Subdominant responses”; the “CD8^+ T cell response, median” value is 0.025 % of CD8^+ T cells; the donors with response entry is given as “single donor”. Regarding “IYHPGGNKL (Influenza B virus) [PB2245-253]”, the “immunogenicity” value with CD8+ T cells is “immunogenic”. Turning to “SYINRTGTFEF (Influenza A virus) [PB1482-492]”, the “in vivo CD8^+ T cell responses” value in the assay on CD8^+ T cells [1] is reported as “targeted”.

Regarding “TYQWVLKNL (Influenza B virus) [PB2550-558]”, in the assay on CD8+ T cells, the “immunogenicity” value is on record as “immunogenic”. For the sequence “AAYEDLRVL (Influenza B virus) [NP392-400]”, the “immunogenicity” value in the assay on CD8+ T cells was “immunogenic”. As to “YLNPGNYSM (Influenza B virus) [M1132-140]”, in the assay on CD8^+ T cells [3], the “CD8^+ T cell response hierarchy” value is listed as “Subdominant responses” and the donors with response result is given as “single donor”. As to “SYLIRALTL (Influenza A virus) [PB1216-224]”, in the assay on CD8^+ T cells [1], the “in vivo CD8^+ T cell responses” value is “targeted”. With “YYSTAASSL (Influenza B virus) [HA552-560]”, the “CD8+ T cell responses (IFNγ)” value with CD8+ T Lymphocytes is listed as “immunogenic response”.

With “VSDGGPNLY (Influenza A virus) [PB1591-599]”, the “memory CD8^+ T cell responses (IFN-γ production after peptide re-stimulation)” value in assay [4] is reported as “robust memory CD8^+ T cell responses”. As for “FEDLRVLSA (Influenza A virus) [NP338-345]”, the “memory CD8^+ T cell responses (IFN-γ production after peptide re-stimulation)” value in assay [4] was “robust memory CD8^+ T cell responses”. As to “IYFSPIRVTF (Influenza B virus) [NP164-173]”, the “immunogenicity” value with CD8+ T cells was “immunogenic”.

In the case of “YFSPIRVTF (Influenza B virus) [NP165-173]”, in the assay on CD8+ T cells, the “immunogenicity” value is recorded as “immunogenic”. Regarding “NFAMELPSF (Influenza B virus) [PB1503-511]”, the “CD8+ T cell responses (IFNγ)” value in the assay on CD8+ T Lymphocytes is “immunogenic response”.

Regarding “SQFGQEHRL (Influenza B virus) [NS1266-274]”, in the assay with CD8^+ T cells [2], the “CD8+ T cell responses (IFNγ and TNF production)” value is listed as “CD8+ T cell responses were targeted”; the “CD8^+ T cell response, mean” value is 1.8 % of CD8^+ T cells; the “CD8^+ T cell responses at the site of infection” value was “targeted”. The “ICS responses in healthy A2:01+ donors” value in the assay with CD8^+ T cells [3] (10 days culture with 10 μM peptide and IL-2, re-stimulation 1 μM) was “detected across multiple donors”. Further, in the assay with CD8^+ T cells [3], the “CD8^+ T cell response hierarchy” value is “Subdominant responses”; the “CD8^+ T cell response, median” value is 0.035 % of CD8^+ T cells; the donors with response result was “single donor”. In addition, the “number of secondary IFNγ^+TNF^+ CD8^+ T cells in the spleen versus primary infection” value with CD8^+ T cells [5] is about 27 fold. Moreover, the “tetramer^+ of CD8^+ T cells, median” value with tetramer^+ CD8^+ T cells is reported as 0.01%.
